# Laboratory results published in ChEMBL document CHEMBL4311957, “Recent advances in natural antifungal flavonoids and their derivatives” (Bioorg Med Chem Lett, 2019).
# Experiments:
# Cryptococcus neoformans [1] = assay: Antifungal activity against Cryptococcus neoformans; format: functional
# Candida albicans [2] = assay: Antifungal activity against Candida albicans; format: functional, organism-based
# Trichophyton rubrum [3] = assay: Antifungal activity against Trichophyton rubrum NBRC 5467 by microdilution method; format: functional
# [4] = system: Trichophyton mentagrophytes; assay: Antifungal activity against Trichophyton mentagrophytes IFM 46027 by microdilution method; format: functional
# Aspergillus fumigatus [5] = assay: Antifungal activity against Aspergillus fumigatus NBRC 4400 by microdilution method; format: functional
# Candida parapsilosis = assay: Antifungal activity against Candida parapsilosis 96 by microdilution method; format: functional; details: Lodderomyces parapsilosis
# Candida tropicalis = assay: Antifungal activity against Candida tropicalis 166 by microdilution method; format: functional
# Pichia kudriavzevii = assay: Antifungal activity against Candida krusei 168 by microdilution method; format: functional
# Candida albicans [6] = assay: Antifungal activity against Candida albicans 501 by microdilution method; format: functional
# Candida albicans [7] = assay: Antifungal activity against Candida albicans 498 by microdilution method; format: functional
# Candida albicans [8] = assay: Antifungal activity against Candida albicans 53 by microdilution method; format: functional
# Candida albicans [9] = assay: Antifungal activity against Candida albicans ATCC 10231 by microdilution method; format: functional
# Nakaseomyces glabratus [10] = assay: Antifungal activity against Candida glabrata 507 by microdilution method; format: functional
# Nakaseomyces glabratus [11] = assay: Antifungal activity against Candida glabrata 531 by microdilution method; format: functional
# Nakaseomyces glabratus [12] = assay: Antifungal activity against Candida glabrata 587 by microdilution method; format: functional
# Nakaseomyces glabratus [13] = assay: Antifungal activity against Candida glabrata 510 by microdilution method; format: functional
# Nakaseomyces glabratus [14] = assay: Antifungal activity against Candida glabrata 493 by microdilution method; format: functional
# Nakaseomyces glabratus [15] = assay: Antifungal activity against Candida glabrata 482 by microdilution method; format: functional
# Cryptococcus neoformans [16] = assay: Antifungal activity against Cryptococcus neoformans after 72 hrs; format: functional
# Trichophyton rubrum [17] = assay: Antifungal activity against Trichophyton rubrum after 5 days; format: functional; details: 120 h
# Cryptococcus gattii = assay: Antifungal activity against Cryptococcus gattii after 72 hrs; format: functional, Cryptococcus gattii VGI
# Aspergillus fumigatus [18] = assay: Antifungal activity against Aspergillus fumigatus; format: functional
MIC (Candida parapsilosis),MIC (Candida tropicalis),MIC (Pichia kudriavzevii),MIC (Candida albicans [6]),MIC (Candida albicans [7]),MIC (Candida albicans [8]),MIC (Candida albicans [9]),MIC (Nakaseomyces glabratus [10]),MIC (Nakaseomyces glabratus [11]),MIC (Nakaseomyces glabratus [12]),MIC (Nakaseomyces glabratus [13]),MIC (Nakaseomyces glabratus [14]),MIC (Nakaseomyces glabratus [15]),Structure (SMILES),also measured
,,,,,,,,,,,,,CC(C)=CCc1c(O)ccc(C(=O)/C=C/c2ccc(O)cc2)c1O [ISOBAVACHALCONE],MIC50 (Cryptococcus neoformans [1]): 7 µg/mL; MIC50 (Candida albicans [2]): 3 µg/mL
,,,,,,,,,,,,,COc1c(O)cc(O)c2c(=O)cc(-c3ccccc3)oc12 [WOGONIN],MIC (Trichophyton rubrum [3]): 60 µg/mL; MIC [4]: 60 µg/mL; MIC (Aspergillus fumigatus [5]): 230 µg/mL
> 83 µg/mL,> 83 µg/mL,> 83 µg/mL,> 83 µg/mL,> 83 µg/mL,> 83 µg/mL,> 83 µg/mL,31.2 µg/mL,31.2 µg/mL,31.2 µg/mL,31.2 µg/mL,31.2 µg/mL,31.2 µg/mL,O=c1c(O)c(-c2ccc(O)cc2)oc2cc(O)cc(O)c12 [KAEMPFEROL],MIC (Candida albicans [2]): 256 to 512 µg/mL
> 83 µg/mL,> 83 µg/mL,> 83 µg/mL,> 83 µg/mL,> 83 µg/mL,> 83 µg/mL,> 83 µg/mL,7.8 to 15.6 µg/mL,7.8 to 15.6 µg/mL,7.8 to 15.6 µg/mL,7.8 to 15.6 µg/mL,7.8 to 15.6 µg/mL,7.8 to 15.6 µg/mL,O=c1c(O)c(-c2ccc(O)c(O)c2)oc2cc(O)ccc12 [FISETIN],MIC (Cryptococcus neoformans [16]): 128 µg/mL; MIC (Trichophyton rubrum [17]): 64 µg/mL; MIC (Cryptococcus gattii): 128 µg/mL
,,,,,,,,,,,,,C=CC(C)(C)c1cc([C@@H]2CC(=O)c3c(O)cc(O)c(CC=C(C)C)c3O2)c(O)cc1O,IC50 (Candida albicans [2]): 121 µM; MIC (Candida albicans [2]): 121 µg/mL
,,,,,,,,,,,,,Cc1c(O)c2c(c(C(=O)/C=C/c3ccccc3)c1O)OC(C)(C)C=C2,MIC (Cryptococcus neoformans [1]): 4 to 8 µg/mL; MIC (Aspergillus fumigatus [18]): 16 µg/mL
> 83 µg/mL,> 83 µg/mL,> 83 µg/mL,> 83 µg/mL,> 83 µg/mL,> 83 µg/mL,> 83 µg/mL,3.9 to 7.8 µg/mL,3.9 to 7.8 µg/mL,3.9 to 7.8 µg/mL,3.9 to 7.8 µg/mL,3.9 to 7.8 µg/mL,3.9 to 7.8 µg/mL,C[C@@H]1O[C@@H](Oc2c(-c3cc(O)c(O)c(O)c3)oc3cc(O)cc(O)c3c2=O)[C@H](O)[C@H](O)[C@H]1O,
